From PMC8395285, “Novel 2-(Adamantan-1-ylamino)Thiazol-4(5H)-One Derivatives and Their Inhibitory Activity towards 11β-HSD1—Synthesis, Molecular Docking and In Vitro Studies” (International Journal of Molecular Sciences, 2021)

Experiments:
[1] = biological target: T1, 11β-HSD1 (Homo sapiens, UniProt P28845); assay: Inhibition of 11β-HSD1 (cortisone to cortisol, human liver microsomes, cortisol ELISA); assay type: biochemical; conditions: for inhibition at 10 µM: 10 µM compound, 2.5 h at 37 °C; for IC50: concentrations 0.625-10.0 µM, read from the chart
T1 construct: Human liver microsomes were used as a source of 11β-HSD1 enzyme; tissue XenoTech Lot No.1410013; host or cells: pooled human liver microsomes, mixed gender
Method: To stop the reaction, 10 µL of a 100 µM solution of 18β-glycyrrhetinic acid in PBS was added. The level of cortisol obtained in the reaction was measured by commercially available ELISA kit.
(§1) As a control, analogous tests without the addition of inhibitors were used. Half the inhibitory concentration (causing 50% reduction of cortisol or cortisone) was read from the chart.

[2] = biological target: T2, 11β-HSD2 (Homo sapiens, UniProt P80365); assay: Inhibition of 11β-HSD2 (cortisol to cortisone, human microsomes, cortisol ELISA); assay type: biochemical; conditions: 10 µM compound, 2.5 h at 37 °C
T2 construct: Human liver microsomes were used as a source of 11β-HSD2 enzyme; tissue XenoTech Lot No. 1710160; host or cells: human kidney microsomes, mixed gender (the method paragraph says human liver microsomes)
T2 sequence (P80365 1-405): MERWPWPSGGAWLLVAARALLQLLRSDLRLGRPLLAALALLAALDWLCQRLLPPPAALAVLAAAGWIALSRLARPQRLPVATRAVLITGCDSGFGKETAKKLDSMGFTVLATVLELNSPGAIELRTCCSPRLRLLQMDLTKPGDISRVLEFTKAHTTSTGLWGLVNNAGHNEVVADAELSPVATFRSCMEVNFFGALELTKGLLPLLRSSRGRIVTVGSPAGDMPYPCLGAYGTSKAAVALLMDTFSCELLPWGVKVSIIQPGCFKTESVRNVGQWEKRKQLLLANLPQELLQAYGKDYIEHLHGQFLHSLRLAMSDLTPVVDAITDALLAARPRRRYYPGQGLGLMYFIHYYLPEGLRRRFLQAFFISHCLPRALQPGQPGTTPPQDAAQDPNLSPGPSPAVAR
Method: […] […] The level of unreacted cortisol was measured by commercially available ELISA kit.
as §1

T1 sequence (P28845 whole entry): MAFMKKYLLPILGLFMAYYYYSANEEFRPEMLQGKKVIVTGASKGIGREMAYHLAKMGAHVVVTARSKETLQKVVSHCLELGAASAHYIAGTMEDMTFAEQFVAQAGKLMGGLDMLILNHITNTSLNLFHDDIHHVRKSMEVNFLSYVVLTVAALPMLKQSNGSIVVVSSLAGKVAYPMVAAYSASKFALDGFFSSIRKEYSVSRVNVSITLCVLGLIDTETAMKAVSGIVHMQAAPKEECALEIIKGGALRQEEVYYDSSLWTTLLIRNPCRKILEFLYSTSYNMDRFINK

SMILES | inhibition at 10 µM [1] | IC50 [1] | inhibition at 10 µM [2] | melting point
O=C1CSC(NC23CC4CC(CC(C4)C2)C3)=N1 [3a, 2-(adamantan-1-ylamino)thiazol-4(5H)-one] | 22.3 ± 5.31% | > 10 µM | 29.8 ± 4.21% | 271 to 273 °C
CCCC1SC(NC23CC4CC(CC(C4)C2)C3)=NC1=O (stereo not drawn) [3d, 2-(adamantan-1-ylamino)-5-propylthiazol-4(5H)-one] | 72.4 ± 2.63% | 3.23 ± 0.26 µM | 28.9 ± 4.11% | 247 to 249 °C
CC(C)C1SC(NC23CC4CC(CC(C4)C2)C3)=NC1=O (stereo not drawn) [3e, 2-(adamantan-1-ylamino)-5-isopropylthiazol-4(5H)-one] | 76.4 ± 2.55% | 1.19 ± 0.21 µM | 16.4 ± 2.06% | 239 to 241 °C
CC1(C)SC(NC23CC4CC(CC(C4)C2)C3)=NC1=O [3f, 2-(adamantan-1-ylamino)-5,5-dimethylthiazol-4(5H)-one] | 66 ± 1.12% | 6.11 ± 0.62 µM | 24.5 ± 3.24% | 208 to 210 °C
O=C1N=C(NC23CC4CC(CC(C4)C2)C3)SC12CCCCC2 [3i, 2-(adamantan-1-ylamino)-1-thia-3-azaspiro [4.5]dec-2-en-4-one] | 82.8 ± 2.05% | 0.31 ± 0.05 µM | > 44% | 268 to 270 °C
O=C1N=C(NC23CC4CC(CC(C4)C2)C3)SC12CCC2 [3j, 6-(adamantan-1-ylamino)-5-thia-7-azaspiro[3.4]oct-6-en-8-one] | 74.1 ± 2.85% | 3.32 ± 0.24 µM | 41.4 ± 4.22% | 265 to 266 °C
CC1(C)[C@@H](OC(=O)CCC(=O)O)CC[C@]2(C)[C@H]3C(=O)C=C4[C@@H]5C[C@@](C)(C(=O)O)CC[C@]5(C)CC[C@@]4(C)[C@]3(C)CC[C@@H]12 [carbenoxolone, reference compound] | 84.8 ± 6.23% | – | – | –

Other lines, results leading:

inhibition at 10 µM [1] | IC50 [1] | inhibition at 10 µM [2] | melting point | SMILES
62.1 ± 3.59% | 3.52 ± 0.19 µM | 44.7 ± 4.19% | 265 to 267 °C | CC1SC(NC23CC4CC(CC(C4)C2)C3)=NC1=O (stereo not drawn) [3b, 2-(adamantan-1-ylamino)-5-methylthiazol-4(5H)-one]
69.2 ± 5.12% | 5.44 ± 0.32 µM | 14.4 ± 1.16% | 257 to 259 °C | CCC1SC(NC23CC4CC(CC(C4)C2)C3)=NC1=O (stereo not drawn) [3c, 2-(adamantan-1-ylamino)-5-ethylthiazol-4(5H)-one]
46.3 ± 5.53% | > 10 µM | 18.3 ± 3.18% | – | O=C1N=C(NC23CC4CC(CC(C4)C2)C3)SC1c1ccccc1 (stereo not drawn) [3g, 2-(adamantan-1-ylamino)-5-phenylthiazol-4(5H)-one]
15.3 ± 0.49% | > 10 µM | 41.8 ± 6.12% | – | O=C1N=C(NC23CC4CC(CC(C4)C2)C3)SC1c1ccc(Br)cc1 (stereo not drawn) [3h, 2-(adamantan-1-ylamino)-5-(4-bromophenyl)thiazol-4(5H)-one]
